Patent publication US9335325B2, “Immunodominant Mycobacterium tuberculosis peptides from cell wall proteins for early diagnosis and immunization” (priority 2008, dated 2016)

B1: LipC: purified His-tagged recombinant Mtb LipC protein (SEQ ID NO:6), probable esterase (protein)
chain: MNQRRAAGSTGVAYIRWLLRARPADYMLALSVAGGSLPVVGKHLKPLGGVTAIGVWGARHASDFLSATAKDLLTPGINEVRRRDRASTQEVSVAALRGIVSPDDLAVEWPAPERTPPVCGALRHRRYVHRRRVLYGDDPAQLLDVWRRKDMPTKPAPVLIFVPGGAWVHGSRAIQGYAVLSRLAAQGWVCLSIDYRVAPHHRWPRHILDVKTAIAWARANVDKFGGDRNFIAVAGCSAGGHLSALAGLTANDPQYQAELPEGSDTSVDAVVGIYGRYDWEDRSTPERARFVDFLERVVVQRTIDRHPEVFRDASPIQRVTRNAPPFLVIHGSRDCVIPVEQARSFVERLRAVSRSQVGYLELPGAGHGFDLLDGARTGPTAHAIALFLNQVHRSRAQFAKEVI
modifications: His tag; Mycbacterium tuberculosis Strain H37Rv

Experiments:
Assay type in all cases: binding
[1] = test system: antibodies in sera from TB patients and PPD+/PPD- healthy subjects; experiment: ELISA of PE-PGRS51 overlapping peptides with human sera; details: for non-specific reactivity with sera from HIV+TB- subjects: 20 HIV+TB- subjects, positive/tested; for final sensitivity: percent of patients whose sera recognize the peptide: 90 sputum smear positive TB patients, positive 2/3 or 3/3 times, cut-off mean plus 4 SD; for Immunoreactive: PE-PGRS51 peptides, biotinylated, streptavidin plates, TB patient sera
[2] = test system: antibodies in sera from HIV-TB+ patients and PPD+/PPD- healthy controls; experiment: ELISA of LipC overlapping peptides with human sera; details: biotinylated, streptavidin plates, patient sera
[3] = test system: antibodies in sera from HIV-TB+ patients and PPD+/PPD- healthy controls; experiment: ELISA of PTRP overlapping peptides with human sera; details: for Immunoreactive: PTRP peptides, biotinylated, streptavidin plates, TB patient sera; for percent of HIV-TB+ patient sera positive with the peptide in 2/3 or 3/3 tests: 60 HIV-TB+ patients, cut-off mean OD of PPD+/PPD- plus 3 SD, retested twice
[4] = test system: anti-LipC antibodies in sera from TB patients; experiment: Western blot of His-tagged LipC probed with human sera; details: for sera showing anti-LipC antibodies: positive/tested

Molecule	Immunoreactive [1]	Immunoreactive [3]	other results
AGAGGNGAAGGDGGANGGAG [PG-31]	++ (++ indicates that the peptides were recognized by 40% or more TB patient sera)		non-specific reactivity with sera from HIV+TB- subjects [1]: no cross-reactivity; percent of HIV+TB+ patient sera recognizing the peptide (sensitivity) ([1]; 30 smear positive HIV+TB+ patients): 57%; final sensitivity: percent of patients whose sera recognize the peptide [1]: 52%
AHAIALFLNQVHRSRAQFAK [Lp-39]			Immunoreactive [2]: ++ (++ immunodominant based on being recognized by 45% or more patient sera)
ARPADYMLALSVAGGSLPVV [Lp-3]			Immunoreactive [2]: ++ (++ immunodominant based on being recognized by 45% or more patient sera)
DATTSLPRAEAGQSGSEGEQ [PT-23]		++ (++ indicates that the peptides were recognized by 40% or more TB patient sera)	
DGGLLFGNGGAGYNSAATPG [PG-14]	++ (++ indicates that the peptides were recognized by 40% or more TB patient sera)		
DRSLAGENHRLVATRLCWPD [PT-6]		++ (++ indicates that the peptides were recognized by 40% or more TB patient sera)	
FPGWQPGMPTIPTAPPTTPV [PT-41]		++ (++ indicates that the peptides were recognized by 40% or more TB patient sera)	percent of HIV-TB+ patient sera positive with the peptide in 2/3 or 3/3 tests [3]: 55%
GGTGGDGGDGGHAGTGGRGG [PG-51]	++ (++ indicates that the peptides were recognized by 40% or more TB patient sera)		
GGTHGTPGSGNAGGTGTGNA [PG-55]	++ (++ indicates that the peptides were recognized by 40% or more TB patient sera)		final sensitivity: percent of patients whose sera recognize the peptide [1]: 49%
GHAGTGGRGGLLAGQHANSG [PG-52]	++ (++ indicates that the peptides were recognized by 40% or more TB patient sera)		
GNGGAGGDANGNPANTSIAN [PG-29]	++ (++ indicates that the peptides were recognized by 40% or more TB patient sera)		
GSRDCVIPVEQARSFVERLR [Lp-34]			Immunoreactive [2]: ++ (++ immunodominant based on being recognized by 45% or more patient sera)
GTPGGAGVNGGNGGAGGDAN [PG-28]	++ (++ indicates that the peptides were recognized by 40% or more TB patient sera)		
IAVAGCSAGGHLSALAGLTA [Lp-24]			Immunoreactive [2]: ++ (++ immunodominant based on being recognized by 45% or more patient sera)
LAAAASDVANIGSALSAANA [PG-2]	++ (++ indicates that the peptides were recognized by 40% or more TB patient sera)		non-specific reactivity with sera from HIV+TB- subjects [1]: 2/20; final sensitivity: percent of patients whose sera recognize the peptide [1]: 48%
LLAGQHANSGNGGGGGTGGA [PG-53]	++ (++ indicates that the peptides were recognized by 40% or more TB patient sera)		
LQDSGVHDVAVISEAQAATA [PT-9]		++ (++ indicates that the peptides were recognized by 40% or more TB patient sera)	percent of HIV-TB+ patient sera positive with the peptide in 2/3 or 3/3 tests [3]: 58%

Molecule	Immunoreactive [1]	Immunoreactive [3]	other results
LSVVGDPDAPPTMVAVAPVA [PT-13]		++ (++ indicates that the peptides were recognized by 40% or more TB patient sera)	percent of HIV-TB+ patient sera positive with the peptide in 2/3 or 3/3 tests [3]: 53%
LTGNDGVNPAPVTNPALNGA [PG-24]	++ (++ indicates that the peptides were recognized by 40% or more TB patient sera)		
MAGGNGGNAGLIGNGGTGGS [PG-16]	++ (++ indicates that the peptides were recognized by 40% or more TB patient sera)		
MDVALGVAVTDRVARLALVD [PT-1]		++ (++ indicates that the peptides were recognized by 40% or more TB patient sera)	
NDPQYQAELPEGSDTSVDAV [Lp-26]			Immunoreactive [2]: ++ (++ immunodominant based on being recognized by 45% or more patient sera)
NGGAGGDAGHGGTGGDGGDG [PG-50]	++ (++ indicates that the peptides were recognized by 40% or more TB patient sera)		non-specific reactivity with sera from HIV+TB- subjects [1]: 1/20; final sensitivity: percent of patients whose sera recognize the peptide [1]: 50%
PIPVPIIIPPFPGWQPGMPT [PT-40]		++ (++ indicates that the peptides were recognized by 40% or more TB patient sera)	percent of HIV-TB+ patient sera positive with the peptide in 2/3 or 3/3 tests [3]: 52%
PTMVAVAPVAGADATSTVDT [PT-14]		++ (++ indicates that the peptides were recognized by 40% or more TB patient sera)	
QQAPVPPPPPDDPTAGFQGG [PT-34]		++ (++ indicates that the peptides were recognized by 40% or more TB patient sera)	
QTPDDPTFALARGAAMAAGA [PT-20]		++ (++ indicates that the peptides were recognized by 40% or more TB patient sera)	
SAAPGTVIDQFVLDVAEHPV [PT-3]		++ (++ indicates that the peptides were recognized by 40% or more TB patient sera)	
SVAGGSLPVVGKHLKPLGGV [Lp-4]			Immunoreactive [2]: ++ (++ immunodominant based on being recognized by 45% or more patient sera)
TAIGVWGARHASDFLSATAK [Lp-6]			Immunoreactive [2]: ++ (++ immunodominant based on being recognized by 45% or more patient sera)
TGAGGSYALTEAANVQQNLL [PG-9]	++ (++ indicates that the peptides were recognized by 40% or more TB patient sera)		
TTPPTTPVTTPPTTPPTTPV [PT-45]		++ (++ indicates that the peptides were recognized by 40% or more TB patient sera)	
B1			sera showing anti-LipC antibodies ([4]; HIV+TB+ patients): 6/6; reactivity of control sera ([4]; HIV+TB-, HIV-PPD+, HIV-PPD- control sera): background cross-reactivity; sera showing anti-LipC antibodies ([4]; HIV-TB+ patients): 5/6; sera showing anti-LipC antibodies ([4]; TB patients (HIV-TB+ and HIV+TB+)): 11/12
